Source: PMC10174618, “Monoterpenoid aryl hydrocarbon receptor allosteric antagonists protect against ultraviolet skin damage in female mice” (Nature Communications, 2023)

Assays:
Assay in all cases: biochemical
Set-up in all cases: KINOMEscan scanMAX active site-directed competition binding assay, percent of control, 468 kinases
Details in all cases: competition binding, percent of control
[1] = biological target: T1, ABL1(F317I)-nonphosphorylated (Homo sapiens, UniProt P00519, F317I)
T1 construct: nonphosphorylated
Method: (§1) The KINOMEscan^TM screening platform (scanMAX assay) employs a proprietary active site-directed competition binding assay that quantitatively measures the interactions between test compounds (here 100 μM S-carvone) and 468 human protein kinases. The assay was performed at Eurofins DiscoverX Corp. (Fremont, CA, USA). Blocking protein kinase C (PKC) activity was reported to inhibit the transcription of CYP1A1 but to exert no effect on the nuclear translocation of AhR[26], which was also the case here with carvones. Therefore, we tested whether carvones inhibit PKC catalytic activity. […] We also evaluated the interaction between 100 μM S-carvone and 468 human protein kinases, employing KINOMEscan^TM (scanMAX assay), a proprietary active site-directed competition binding assay. The minimal inhibitory threshold used by the screening platform KINOMEscan^TM is 35% of the control kinase activity. Among 468 kinases tested, 467 were above the 35% cutoff. Tyrosine kinase 2 TK2 (JH2 domain pseudokinase) activity was inhibited to 27% of the control activity, but this kinase is not relevant to the regulation of transcription activity (Fig. 5B; Figure S9). Overall, we excluded the possibility that the effects of carvones on AhR signaling are caused indirectly by the inhibition of the human kinome, particularly PKC.

[2] = biological target: T2, ABL1(F317L)-phosphorylated (Homo sapiens, UniProt P00519, F317L)
T2 construct: phosphorylated
Method: as §1

ADCK4 = biological target: T3, ADCK4 (Homo sapiens, UniProt Q96D53)
T3 construct: gene COQ8B
Method: as §1

CAMK2D = CAMK2D (Homo sapiens, UniProt Q13557)
Method: as §1

DDR2 = DDR2 (Homo sapiens, UniProt Q16832)
Method: as §1

EGFR(G719C) = EGFR(G719C) (Homo sapiens, UniProt P00533, G719C)
Method: as §1

EGFR(L861Q) = EGFR(L861Q) (Homo sapiens, UniProt P00533, L861Q)
Method: as §1

ERBB2 = ERBB2 (Homo sapiens, UniProt P04626)
Method: as §1

ERK4 = biological target: T4, ERK4 (Homo sapiens, UniProt P31152)
T4 construct: gene MAPK4
Method: as §1

GSK3B = GSK3B (Homo sapiens, UniProt P49841)
Method: as §1

HIPK2 = HIPK2 (Homo sapiens, UniProt Q9H2X6)
Method: as §1

MST3 = biological target: T5, MST3 (Homo sapiens, UniProt Q9Y6E0)
T5 construct: gene STK24
Method: as §1

MST4 = biological target: T6, MST4 (Homo sapiens, UniProt Q9P289)
T6 construct: gene STK26
Method: as §1

MTOR = MTOR (Homo sapiens, UniProt P42345)
Method: as §1

PIK3CA(H1047Y) = PIK3CA(H1047Y) (Homo sapiens, UniProt P42336, H1047Y)
Method: as §1

PIKFYVE = PIKFYVE (Homo sapiens, UniProt Q9Y2I7)
Method: as §1

PKAC-alpha = biological target: T7, PKAC-alpha (Homo sapiens, UniProt P17612)
T7 construct: gene PRKACA
Method: as §1

PKN1 = PKN1 (Homo sapiens, UniProt Q16512)
Method: as §1

TESK1 = TESK1 (Homo sapiens, UniProt Q15569)
Method: as §1

YSK1 = biological target: T8, YSK1 (Homo sapiens, UniProt O00506)
T8 construct: gene STK25
Method: as §1

ZAP70 = ZAP70 (Homo sapiens, UniProt P43403)
Method: as §1

T1 sequence (P00519 whole entry F317I): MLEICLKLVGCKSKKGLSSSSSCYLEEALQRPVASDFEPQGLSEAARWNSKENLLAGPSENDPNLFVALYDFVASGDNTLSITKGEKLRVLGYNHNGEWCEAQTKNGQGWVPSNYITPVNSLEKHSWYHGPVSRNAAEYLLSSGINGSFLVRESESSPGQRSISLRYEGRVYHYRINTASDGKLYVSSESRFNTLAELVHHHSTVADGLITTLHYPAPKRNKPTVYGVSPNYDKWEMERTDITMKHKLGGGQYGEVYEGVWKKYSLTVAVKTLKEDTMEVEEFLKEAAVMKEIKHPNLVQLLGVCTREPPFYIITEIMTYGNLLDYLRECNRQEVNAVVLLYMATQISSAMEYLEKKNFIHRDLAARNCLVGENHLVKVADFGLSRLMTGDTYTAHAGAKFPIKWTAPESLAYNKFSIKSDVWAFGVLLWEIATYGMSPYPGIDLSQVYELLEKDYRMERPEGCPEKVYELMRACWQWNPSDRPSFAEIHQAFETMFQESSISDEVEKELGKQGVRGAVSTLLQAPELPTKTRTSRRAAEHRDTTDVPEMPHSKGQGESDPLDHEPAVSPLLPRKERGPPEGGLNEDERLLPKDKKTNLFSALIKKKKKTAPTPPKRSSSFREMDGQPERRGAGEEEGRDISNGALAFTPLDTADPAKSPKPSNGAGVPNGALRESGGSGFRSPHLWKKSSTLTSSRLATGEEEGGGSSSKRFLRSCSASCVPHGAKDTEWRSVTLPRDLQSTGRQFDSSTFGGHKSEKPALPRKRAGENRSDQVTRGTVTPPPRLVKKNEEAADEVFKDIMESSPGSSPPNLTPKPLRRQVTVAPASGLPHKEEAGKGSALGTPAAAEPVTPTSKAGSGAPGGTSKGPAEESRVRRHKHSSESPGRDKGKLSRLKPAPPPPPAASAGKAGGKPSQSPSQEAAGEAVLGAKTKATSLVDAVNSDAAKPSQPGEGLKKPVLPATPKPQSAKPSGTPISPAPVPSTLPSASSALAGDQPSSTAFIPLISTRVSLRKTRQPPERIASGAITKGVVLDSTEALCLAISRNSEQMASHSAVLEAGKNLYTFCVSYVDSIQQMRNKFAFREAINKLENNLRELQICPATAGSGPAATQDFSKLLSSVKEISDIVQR
T4 sequence (P31152 whole entry): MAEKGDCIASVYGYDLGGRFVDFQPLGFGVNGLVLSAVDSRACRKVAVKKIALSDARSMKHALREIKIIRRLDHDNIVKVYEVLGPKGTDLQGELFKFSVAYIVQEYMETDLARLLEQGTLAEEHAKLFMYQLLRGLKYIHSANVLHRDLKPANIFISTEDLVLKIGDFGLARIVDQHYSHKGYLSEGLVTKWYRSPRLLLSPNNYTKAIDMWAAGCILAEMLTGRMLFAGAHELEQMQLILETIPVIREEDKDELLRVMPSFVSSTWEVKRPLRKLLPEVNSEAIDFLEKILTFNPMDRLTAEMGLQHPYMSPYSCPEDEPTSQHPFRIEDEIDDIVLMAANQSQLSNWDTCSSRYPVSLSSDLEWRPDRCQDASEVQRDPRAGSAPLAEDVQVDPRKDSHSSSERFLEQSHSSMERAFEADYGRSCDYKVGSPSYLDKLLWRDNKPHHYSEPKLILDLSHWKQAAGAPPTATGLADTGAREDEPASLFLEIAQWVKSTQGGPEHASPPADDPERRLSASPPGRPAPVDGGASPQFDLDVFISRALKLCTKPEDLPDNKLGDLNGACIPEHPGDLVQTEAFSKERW
Chain of GSK3B (P49841 whole entry): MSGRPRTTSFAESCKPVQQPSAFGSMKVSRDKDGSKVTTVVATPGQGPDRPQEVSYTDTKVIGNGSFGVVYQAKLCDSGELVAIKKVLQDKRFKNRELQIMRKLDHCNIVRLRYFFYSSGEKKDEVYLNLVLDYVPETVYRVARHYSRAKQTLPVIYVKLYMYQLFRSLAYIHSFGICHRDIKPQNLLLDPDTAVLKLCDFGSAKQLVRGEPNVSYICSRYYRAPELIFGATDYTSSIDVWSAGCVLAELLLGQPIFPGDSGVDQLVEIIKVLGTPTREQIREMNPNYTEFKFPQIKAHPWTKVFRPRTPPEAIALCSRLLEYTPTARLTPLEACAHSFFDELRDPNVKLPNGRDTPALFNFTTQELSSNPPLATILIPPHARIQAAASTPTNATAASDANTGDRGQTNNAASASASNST
Chain of HIPK2 (Q9H2X6 whole entry): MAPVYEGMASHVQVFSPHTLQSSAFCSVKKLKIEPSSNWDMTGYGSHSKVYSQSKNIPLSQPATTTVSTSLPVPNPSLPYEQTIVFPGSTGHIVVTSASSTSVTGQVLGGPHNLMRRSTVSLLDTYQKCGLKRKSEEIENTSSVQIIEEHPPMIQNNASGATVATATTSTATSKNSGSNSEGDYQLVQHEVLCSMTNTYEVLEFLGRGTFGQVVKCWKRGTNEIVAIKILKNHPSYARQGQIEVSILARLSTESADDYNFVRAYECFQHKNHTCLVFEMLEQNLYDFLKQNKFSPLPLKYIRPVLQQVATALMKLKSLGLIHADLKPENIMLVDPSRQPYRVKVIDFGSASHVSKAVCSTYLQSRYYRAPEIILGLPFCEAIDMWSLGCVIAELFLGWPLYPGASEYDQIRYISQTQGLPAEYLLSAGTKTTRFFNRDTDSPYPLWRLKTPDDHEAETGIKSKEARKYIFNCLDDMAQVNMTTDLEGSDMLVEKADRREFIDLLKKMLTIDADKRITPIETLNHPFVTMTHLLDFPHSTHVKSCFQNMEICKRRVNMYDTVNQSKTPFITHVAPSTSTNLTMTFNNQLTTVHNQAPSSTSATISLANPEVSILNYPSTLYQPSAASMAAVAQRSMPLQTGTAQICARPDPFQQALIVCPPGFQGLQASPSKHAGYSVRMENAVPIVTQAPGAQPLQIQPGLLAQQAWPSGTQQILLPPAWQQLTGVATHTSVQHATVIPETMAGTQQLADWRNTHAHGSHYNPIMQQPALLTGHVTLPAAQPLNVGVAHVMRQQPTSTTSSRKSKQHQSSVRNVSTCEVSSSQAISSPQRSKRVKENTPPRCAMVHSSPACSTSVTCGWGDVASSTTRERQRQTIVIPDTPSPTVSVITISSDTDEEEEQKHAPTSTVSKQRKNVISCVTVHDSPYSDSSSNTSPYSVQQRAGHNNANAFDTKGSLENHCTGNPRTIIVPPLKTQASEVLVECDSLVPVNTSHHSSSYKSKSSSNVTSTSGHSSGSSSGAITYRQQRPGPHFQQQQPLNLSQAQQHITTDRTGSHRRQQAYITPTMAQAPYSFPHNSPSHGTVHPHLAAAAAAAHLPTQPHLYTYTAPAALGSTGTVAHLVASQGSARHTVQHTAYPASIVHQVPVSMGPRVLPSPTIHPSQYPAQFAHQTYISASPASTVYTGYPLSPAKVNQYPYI
Chain of ZAP70 (P43403 whole entry): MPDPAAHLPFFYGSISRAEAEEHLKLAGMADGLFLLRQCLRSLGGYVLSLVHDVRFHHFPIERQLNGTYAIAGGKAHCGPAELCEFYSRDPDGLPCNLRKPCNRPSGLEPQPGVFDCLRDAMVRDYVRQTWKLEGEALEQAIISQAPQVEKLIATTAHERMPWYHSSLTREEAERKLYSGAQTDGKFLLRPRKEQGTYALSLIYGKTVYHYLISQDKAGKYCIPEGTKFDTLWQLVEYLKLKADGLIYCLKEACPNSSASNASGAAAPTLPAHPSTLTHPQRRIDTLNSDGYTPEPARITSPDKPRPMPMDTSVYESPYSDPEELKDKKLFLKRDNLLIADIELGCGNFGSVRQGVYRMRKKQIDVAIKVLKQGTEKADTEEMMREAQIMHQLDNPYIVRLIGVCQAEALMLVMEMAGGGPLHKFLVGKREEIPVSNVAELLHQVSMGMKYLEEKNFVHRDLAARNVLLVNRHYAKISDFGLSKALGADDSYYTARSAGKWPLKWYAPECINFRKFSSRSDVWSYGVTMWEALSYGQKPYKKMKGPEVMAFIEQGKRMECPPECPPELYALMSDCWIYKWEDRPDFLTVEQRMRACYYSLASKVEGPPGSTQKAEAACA
Chain of PIK3CA(H1047Y) (P42336 whole entry H1047Y): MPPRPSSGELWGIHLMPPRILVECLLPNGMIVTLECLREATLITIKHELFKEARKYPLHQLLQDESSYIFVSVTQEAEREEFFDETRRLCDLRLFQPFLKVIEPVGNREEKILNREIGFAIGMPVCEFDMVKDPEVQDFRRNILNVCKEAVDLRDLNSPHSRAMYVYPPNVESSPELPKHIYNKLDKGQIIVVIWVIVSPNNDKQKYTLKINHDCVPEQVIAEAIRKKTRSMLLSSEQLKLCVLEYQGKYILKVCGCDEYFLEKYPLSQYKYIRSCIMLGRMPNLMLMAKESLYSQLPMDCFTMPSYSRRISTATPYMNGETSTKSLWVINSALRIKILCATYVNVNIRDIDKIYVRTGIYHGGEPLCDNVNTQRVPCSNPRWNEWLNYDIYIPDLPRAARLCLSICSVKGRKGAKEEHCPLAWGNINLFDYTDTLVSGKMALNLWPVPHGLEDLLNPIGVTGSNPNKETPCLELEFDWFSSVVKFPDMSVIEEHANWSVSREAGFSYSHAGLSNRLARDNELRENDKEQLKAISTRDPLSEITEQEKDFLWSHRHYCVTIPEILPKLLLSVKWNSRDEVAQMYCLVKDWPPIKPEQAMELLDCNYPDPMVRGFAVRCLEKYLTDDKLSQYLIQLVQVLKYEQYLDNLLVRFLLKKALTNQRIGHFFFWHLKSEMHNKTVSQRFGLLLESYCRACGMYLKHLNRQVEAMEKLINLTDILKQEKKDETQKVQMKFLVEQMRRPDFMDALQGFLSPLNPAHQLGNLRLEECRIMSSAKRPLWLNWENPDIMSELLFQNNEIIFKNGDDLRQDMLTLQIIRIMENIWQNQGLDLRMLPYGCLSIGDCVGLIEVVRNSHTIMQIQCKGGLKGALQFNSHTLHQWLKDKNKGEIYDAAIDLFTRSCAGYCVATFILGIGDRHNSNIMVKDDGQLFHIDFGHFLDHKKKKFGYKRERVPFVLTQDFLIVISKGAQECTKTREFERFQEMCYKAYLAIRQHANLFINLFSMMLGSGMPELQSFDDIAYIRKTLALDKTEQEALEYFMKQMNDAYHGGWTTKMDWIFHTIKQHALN
T2 sequence (P00519 whole entry F317L): as the sequence (P00519 whole entry F317I) above, with I317L counted along it

remaining binding at 100 µM [1]: 64%
remaining binding at 100 µM [2]: 93%
remaining binding at 100 µM (ADCK4): 92%
remaining binding at 100 µM (CAMK2D): 94%
remaining binding at 100 µM (DDR2): 88%
remaining binding at 100 µM (EGFR(G719C)): 74%
remaining binding at 100 µM (EGFR(L861Q)): 65%
remaining binding at 100 µM (ERBB2): 83%
remaining binding at 100 µM (ERK4): 89%
remaining binding at 100 µM (GSK3B): 82%
remaining binding at 100 µM (HIPK2): 76%
remaining binding at 100 µM (MST3): 64%
remaining binding at 100 µM (MST4): 100%
remaining binding at 100 µM (MTOR): 78%
remaining binding at 100 µM (PIK3CA(H1047Y)): 92%
remaining binding at 100 µM (PIKFYVE): 100%
remaining binding at 100 µM (PKAC-alpha): 85%
remaining binding at 100 µM (PKN1): 93%
remaining binding at 100 µM (TESK1): 79%
remaining binding at 100 µM (YSK1): 73%
remaining binding at 100 µM (ZAP70): 84%
Structure (SMILES): C=C(C)[C@H]1CC=C(C)C(=O)C1 [S-carvone]
